Reference: ChEMBL document CHEMBL1201862, “PubChem BioAssay data set” (2004)
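In this assay, cells in 96-well plates receive the compound at five concentrations for 48 hours. Endpoints are linearly interpolated between the surrounding concentrations. GI50 marks 50% less growth.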 Activity calls are given as the source filed them. Cut-off read from the data, not from the text of the source: active = GI50 up to about 1.1 µM and inactive = higher.

What was measured:
Assay in all cases: growth of human tumour cells (NCI), 48 h
MDA-MB-435 = test system: MDA-MB-435
SF-539 = test system: SF-539
HOP-92 = test system: HOP-92
LOX IMVI = test system: LOX IMVI
SW-620 = test system: SW-620
NCI-H23 = test system: NCI-H23
UO-31 = test system: UO-31
EKVX = test system: EKVX
SF-268 = test system: SF-268
COLO 205 = test system: COLO 205
UACC-62 = test system: UACC-62
RXF 393 = test system: RXF 393
NCI-H522 = test system: NCI-H522
HOP-62 = test system: HOP-62
MDA-MB-231 = test system: MDA-MB-231
PC-3 = test system: PC-3
NCI/ADR-RES = test system: NCI/ADR-RES
SNB-75 = test system: SNB-75
CAKI-1 = test system: CAKI-1
A498 = test system: A498

Compound	GI50 (MDA-MB-435)	GI50 (SF-539)	GI50 (HOP-92)	GI50 (LOX IMVI)	GI50 (SW-620)	GI50 (NCI-H23)	GI50 (UO-31)	GI50 (EKVX)	GI50 (SF-268)	GI50 (COLO 205)	GI50 (UACC-62)	GI50 (RXF 393)	GI50 (NCI-H522)	GI50 (HOP-62)	GI50 (MDA-MB-231)	GI50 (PC-3)	GI50 (NCI/ADR-RES)	GI50 (SNB-75)	GI50 (CAKI-1)	GI50 (A498)
CC(CO)(CO)/N=C/c1cc(I)cc(I)c1O	13.5 µM (inactive)	14.5 µM (inactive)	14 µM (inactive)	10.3 µM (inactive)	22 µM (inactive)	21.8 µM (inactive)	12 µM (inactive)	19.5 µM (inactive)	5.62 µM (inactive)	17.8 µM (inactive)	16 µM (inactive)	10.9 µM (inactive)	19.1 µM (inactive)	11.2 µM (inactive)	18.7 µM (inactive)	14.2 µM (inactive)	14.2 µM (inactive)	12.9 µM (inactive)	22.2 µM (inactive)	26.5 µM (inactive)
C=C(C)C(=O)/N=C(\N)NC#N	131 µM (inactive)	34.8 µM (inactive)	14.2 µM (inactive)	33 µM (inactive)	19.3 µM (inactive)	72.3 µM (inactive)	> 62.7 µM (inactive)	> 54 µM (inactive)	27.1 µM (inactive)	49.2 µM (inactive)	34.7 µM (inactive)	36.6 µM (inactive)	5.81 µM (inactive)	> 63.1 µM (inactive)	48.2 µM (inactive)	158 µM (inactive)	35.9 µM (inactive)	67.9 µM (inactive)	24.4 µM (inactive)	> 46.5 µM (inactive)
C/C=C(\N=C=S)C(=O)OC1C(COC(C)=O)OC([C@]2(O)CC(=O)C(N)=C(C(=O)O)C2=O)C(O)C1OC1CC(OC)C(O)([C@@H](C)OC(=O)[C@@H](C)CC)C(C)O1 (stereo not given in full)	17.3 µM (inactive)	7.53 µM (inactive)	3.45 µM (inactive)	6.34 µM (inactive)	3.01 µM (inactive)	9.84 µM (inactive)	18.2 µM (inactive)	12.6 µM (inactive)	9.57 µM (inactive)	4.71 µM (inactive)	5.31 µM (inactive)	5.35 µM (inactive)	2.17 µM (inactive)	22.1 µM (inactive)	19.6 µM (inactive)	15.7 µM (inactive)	94.4 µM (inactive)	16.9 µM (inactive)	19.6 µM (inactive)	35 µM (inactive)
Cc1cc(NC(=O)NC(=O)c2ccccc2NC(=O)C(C)N)ccc1Oc1ncc(Br)cn1 (stereo not given)	0.0254 µM (active)	0.0158 µM (active)	1.92 µM (inactive)	0.173 µM (active)	0.185 µM (active)	0.172 µM (active)	0.216 µM (active)	0.335 µM (active)	0.408 µM (active)	0.0719 µM (active)	0.0693 µM (active)	0.0111 µM (active)	0.0301 µM (active)	0.0306 µM (active)	0.143 µM (active)	0.0391 µM (active)	0.0208 µM (active)	< 0.01 µM (active)	0.0173 µM (active)	0.025 µM (active)
